Source: ChEMBL document CHEMBL1275364, “Diaryldiamines with dual inhibition of the histamine H(3) receptor and the norepinephrine transporter and the efficacy of 4-(3-(methylamino)-1-phenylpropyl)-6-(2-(pyrrolidin-1-yl)ethoxy)naphthalen-1-ol in pain” (J Med Chem, 2010)
Converted amounts (≈) assume the structure as drawn.

Experiments:
[1] = target: Histamine H3 receptor (Rattus norvegicus, UniProt Q9QYN8)
Description: Displacement of [3H]N-R-methylhistamine from rat H3 receptor

[2] = target: Sodium-dependent serotonin transporter (Homo sapiens, UniProt P31645)
[3] = target: T1, Histamine H3 receptor (Homo sapiens, UniProt Q9Y5N1); assay: biochemical
T1 sequence (Q9Y5N1 whole entry): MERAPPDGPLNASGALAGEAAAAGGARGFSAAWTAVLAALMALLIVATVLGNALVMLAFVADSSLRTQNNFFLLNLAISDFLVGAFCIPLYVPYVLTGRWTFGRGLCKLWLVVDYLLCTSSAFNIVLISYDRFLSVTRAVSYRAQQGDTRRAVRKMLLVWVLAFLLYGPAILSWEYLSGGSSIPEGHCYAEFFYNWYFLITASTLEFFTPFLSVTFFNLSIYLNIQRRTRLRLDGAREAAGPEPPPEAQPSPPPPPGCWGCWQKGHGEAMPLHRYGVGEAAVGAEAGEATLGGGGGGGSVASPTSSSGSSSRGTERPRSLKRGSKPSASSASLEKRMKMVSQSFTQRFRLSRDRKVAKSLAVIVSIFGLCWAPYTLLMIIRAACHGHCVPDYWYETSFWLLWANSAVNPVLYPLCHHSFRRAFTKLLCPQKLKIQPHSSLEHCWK
Description: Displacement of [3H]N-R-methylhistamine from human H3 receptor isolated from C6 cells

[4] = target: Transporter (Rattus norvegicus, UniProt Q63380); assay: biochemical
Chain of Transporter (Q63380 whole entry): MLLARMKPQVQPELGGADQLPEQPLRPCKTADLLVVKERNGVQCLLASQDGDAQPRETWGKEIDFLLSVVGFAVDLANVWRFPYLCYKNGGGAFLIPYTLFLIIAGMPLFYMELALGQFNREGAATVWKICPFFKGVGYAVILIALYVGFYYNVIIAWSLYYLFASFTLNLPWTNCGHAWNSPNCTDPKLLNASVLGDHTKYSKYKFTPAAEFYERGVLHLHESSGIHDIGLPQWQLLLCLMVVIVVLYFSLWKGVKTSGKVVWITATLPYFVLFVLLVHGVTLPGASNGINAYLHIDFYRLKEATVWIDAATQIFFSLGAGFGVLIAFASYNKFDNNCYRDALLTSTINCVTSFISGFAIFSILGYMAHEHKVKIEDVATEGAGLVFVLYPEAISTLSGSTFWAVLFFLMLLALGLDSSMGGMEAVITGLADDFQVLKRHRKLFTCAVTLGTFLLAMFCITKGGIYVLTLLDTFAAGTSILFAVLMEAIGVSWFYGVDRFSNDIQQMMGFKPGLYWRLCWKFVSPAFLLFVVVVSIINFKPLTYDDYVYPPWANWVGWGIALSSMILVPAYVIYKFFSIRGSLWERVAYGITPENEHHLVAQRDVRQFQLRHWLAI
Description: Displacement of [3H]nisoxetine from rat NET in rat cerebral cortex

[5] = target: T1, Histamine H3 receptor; assay: Antagonist activity at human recombinant histamine H3 receptor expressed in HEK cells assessed as inhibition of RAMH-induced [35S]GTPgammaS binding by liquid scintillation counting; type: functional, cell-based; conditions: HEK293
[6] = Plasma protein binding in Sprague-Dawley rat at 1 mg/kg, iv; type: ADME, organism-based; set-up: dose 1 mg/kg, route intravenous; conditions: read-out: PPB (converted)
[7] = Volume of distribution in Sprague-Dawley rat at 1 mg/kg, iv; type: ADME, organism-based; set-up: dose 1 mg/kg, route intravenous; conditions: in vivo
[8] = Bioavailability in Sprague-Dawley rat at 1 mg/kg, ip and iv; type: ADME, organism-based; conditions: in vivo
[9] = Tmax in Sprague-Dawley rat at 1 mg/kg, ip; type: ADME, organism-based; set-up: dose 1 mg/kg, route intraperitoneal; conditions: in vivo
[10] = Half life in Sprague-Dawley rat at 1 mg/kg, iv; type: ADME, organism-based; set-up: dose 1 mg/kg, route intravenous; conditions: in vivo
[11] = Clearance in Sprague-Dawley rat at 1 mg/kg, iv; type: ADME, organism-based; set-up: dose 1 mg/kg, route intravenous; conditions: in vivo
[12] = tested on: Rattus norvegicus; assay: Ex vivo receptor occupancy of histamine H3 receptor in Sprague-Dawley rat osteoarthritis model at 3 mg/kg, ip; type: functional; conditions: route intraperitoneal
[13] = tested on: Rattus norvegicus; assay: Ex vivo receptor occupancy of NET in Sprague-Dawley rat osteoarthritis model at 1 mg/kg, ip; type: functional; conditions: route intraperitoneal
[14] = Cmax in Sprague-Dawley rat at 1 mg/kg, ip; type: ADME, organism-based; set-up: dose 1 mg/kg, route intraperitoneal; conditions: in vivo
[15] = tested on: Rattus norvegicus; assay: Antiinflammatory activity in Sprague-Dawley rat osteoarthritis model assessed as efficacy at 3 mg/kg, ip after 20 days; type: functional; conditions: route intraperitoneal
[16] = tested on: Rattus norvegicus; assay: Antiinflammatory activity in ip dosed Sprague-Dawley rat osteoarthritis model assessed as efficacy measured at 370 nM plasma concentration after 20 days; type: functional
[17] = tested on: Rattus norvegicus; assay: Ex vivo receptor occupancy of histamine H3 receptor in Sprague-Dawley rat osteoarthritis model at 1 mg/kg, ip; type: functional; conditions: route intraperitoneal
[18] = Plasma concentration in Sprague-Dawley rat osteoarthritis model at 10 mg/kg, ip after 45 mins; type: ADME, organism-based; set-up: dose 10 mg/kg, route intraperitoneal
[19] = Plasma concentration in Sprague-Dawley rat osteoarthritis model at 1 mg/kg, ip after 45 mins; type: ADME, organism-based; set-up: dose 1 mg/kg, route intraperitoneal
[20] = tested on: Rattus norvegicus; assay: Ex vivo receptor occupancy of NET in Sprague-Dawley rat osteoarthritis model at 3 mg/kg, ip; type: functional; conditions: route intraperitoneal
[21] = tested on: Rattus norvegicus; assay: Antiinflammatory activity in ip dosed Sprague-Dawley rat osteoarthritis model assessed as efficacy measured after 20 days; type: functional; conditions: 480 h
[22] = tested on: Rattus norvegicus; assay: Ex vivo receptor occupancy of histamine H3 receptor in Sprague-Dawley rat osteoarthritis model at 10 mg/kg, ip; type: functional; conditions: route intraperitoneal
[23] = Plasma protein binding in Sprague-Dawley rat assessed as unbound fraction at 1 mg/kg, iv; type: ADME, organism-based; set-up: dose 1 mg/kg, route intravenous
[24] = tested on: Rattus norvegicus; assay: Antiinflammatory activity in Sprague-Dawley rat osteoarthritis model assessed as efficacy at 10 mg/kg, ip after 20 days; type: functional; conditions: route intraperitoneal
[25] = Plasma concentration in Sprague-Dawley rat osteoarthritis model at 3 mg/kg, ip after 45 mins; type: ADME, organism-based; set-up: dose 3 mg/kg, route intraperitoneal
[26] = tested on: Rattus norvegicus; assay: Ex vivo receptor occupancy of NET in Sprague-Dawley rat osteoarthritis model at 10 mg/kg, ip; type: functional; conditions: route intraperitoneal

Chain of Histamine H3 receptor (Rattus norvegicus, UniProt Q9QYN8) (Q9QYN8 whole entry): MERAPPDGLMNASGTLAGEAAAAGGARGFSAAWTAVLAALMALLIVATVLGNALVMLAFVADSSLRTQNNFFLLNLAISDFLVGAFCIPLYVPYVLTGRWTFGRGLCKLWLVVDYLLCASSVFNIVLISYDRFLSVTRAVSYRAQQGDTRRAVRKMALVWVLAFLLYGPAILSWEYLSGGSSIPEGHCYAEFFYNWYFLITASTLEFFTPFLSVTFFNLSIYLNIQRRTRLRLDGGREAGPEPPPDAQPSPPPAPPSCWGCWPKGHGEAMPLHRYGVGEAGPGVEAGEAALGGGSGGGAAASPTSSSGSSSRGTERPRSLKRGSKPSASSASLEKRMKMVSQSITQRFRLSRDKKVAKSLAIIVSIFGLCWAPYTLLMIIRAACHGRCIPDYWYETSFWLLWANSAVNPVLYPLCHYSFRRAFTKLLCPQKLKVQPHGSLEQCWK
Chain of Sodium-dependent serotonin transporter (P31645 whole entry): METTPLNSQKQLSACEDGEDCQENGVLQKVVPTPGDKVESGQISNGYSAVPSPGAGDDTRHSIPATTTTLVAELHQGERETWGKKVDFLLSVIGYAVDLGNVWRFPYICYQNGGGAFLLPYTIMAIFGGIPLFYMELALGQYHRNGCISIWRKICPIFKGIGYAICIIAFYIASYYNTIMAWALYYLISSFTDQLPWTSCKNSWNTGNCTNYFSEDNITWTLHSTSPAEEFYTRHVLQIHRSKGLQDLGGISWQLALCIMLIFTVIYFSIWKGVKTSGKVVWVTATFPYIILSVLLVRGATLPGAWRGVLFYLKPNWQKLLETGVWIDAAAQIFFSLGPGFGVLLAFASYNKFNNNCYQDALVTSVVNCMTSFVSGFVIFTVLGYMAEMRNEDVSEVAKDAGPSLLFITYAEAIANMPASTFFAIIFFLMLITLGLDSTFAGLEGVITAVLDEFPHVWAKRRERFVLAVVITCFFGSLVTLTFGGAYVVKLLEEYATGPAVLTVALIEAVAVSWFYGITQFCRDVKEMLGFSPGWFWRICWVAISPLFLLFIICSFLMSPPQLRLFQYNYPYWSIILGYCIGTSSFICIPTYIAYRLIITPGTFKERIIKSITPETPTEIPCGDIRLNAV

CNCCN(c1ccccc1)c1ccc(OCCN2CCCC2)cc1
Ki [1]: 5.4 nM
Ki [2]: > 70 nM
Ki [3]: 1.6 nM
Ki [4]: 89 nM
Kb [5]: 2.4 nM

CNCCC(Oc1cccc2cc(OCCN3CCCC3)ccc12)c1ccccc1 (centres undefined)
Ki [1]: 48 nM
Ki [4]: 230 nM
Kb [5]: 67 nM

CNCCC(c1ccccc1)c1cccc2ccccc12 (centres undefined)
Ki [2]: 2.4 nM

CNCCC(c1ccccc1)c1ccc(O)c2ccc(OCCN3CCCC3)cc12 (centres undefined)
fraction unbound [6]: 0.33
Vd [7]: 8.2 L/kg
bioavailability [8]: 43%
Ki [1]: 37 nM
Tmax [9]: 0.25 h
Ki [2]: 7 nM
half-life [10]: 12 h
clearance [11]: 7.67 mL/min/kg
Activity [12]: 89%
Activity [13]: 88%
Ki [3]: 7.4 nM
Cmax [14]: 210 ng/mL
Activity [15]: 70%
ED50 [16]: 0.15 µg/mL (≈ 0.371 µM)
Activity [17]: 74%
concentration at 0.75 h [18]: 1240 ng/mL
concentration at 0.75 h [19]: 129 ng/mL
Activity [20]: 96%
Ki [4]: 14 nM
ED50 [21]: 1.2 mg/kg
Activity [22]: 97%
fraction unbound [23]: 0.33
Activity [24]: 93%
Kb [5]: 8.3 nM
concentration at 0.75 h [25]: 382 ng/mL
Activity [26]: 99%

CNCCCN(c1ccccc1)c1ccc(OCCN2CCCC2)cc1
Ki [1]: 0.72 nM
Ki [2]: > 70 nM
Ki [3]: 0.28 nM
Ki [4]: 110 nM
Kb [5]: 0.79 nM

CNCCC(c1ccccc1)c1ccc(OCCN2CCCC2)cc1 (centres undefined)
Ki [1]: 5.2 nM
Ki [2]: > 70 nM
Ki [3]: 1.4 nM
Ki [4]: 4.3 nM

CNCCCC(c1ccccc1)c1ccc(OCCN2CCCC2)cc1 (centres undefined)
Ki [1]: 2.9 nM
Ki [2]: > 70 nM
Ki [3]: 0.89 nM
Ki [4]: 14 nM
Kb [5]: 2.1 nM
